What was measured:
[1] = test system: bamyardgrass; assay: Test B flood test barnyardgrass; type: in vivo, Echinochloa crus-galli; conditions: Pre-emergence
Procedure, shortened: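 Read-out is a visual response score from 0 (no effect) to 10 (complete control), assigned by comparison with untreated controls. Treatment was applied at the 2-leaf stage, and plants stayed in the greenhouse for twelve to sixteen days before scoring.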

[2] = test system: bedstraw; assay: Test B pre/postemergence bedstraw; type: in vivo, Galium aparine
Procedure, shortened: (§1)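 Herbicidal effect was estimated by eye on a ten-point control scale after plants spent twelve to sixteen days in a greenhouse following soil or foliar treatment. Foliar sprays targeted plants at one to four leaves; all doses were formulated in a non-phytotoxic solvent with surfactant.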

[3] = test system: morningglory; assay: Test B pre/postemergence morningglory; type: in vivo, Ipomoea hederacea
Procedure, shortened: as §1

[4] = test system: wild oat; assay: Test B pre/postemergence wild oat; type: in vivo, Avena fatua
Procedure, shortened: as §1

[5] = test system: surinam grass; assay: Test B pre/postemergence surinam grass; type: in vivo, Brachiaria decumbens
Procedure, shortened: as §1

[6] = test system: sugar beet; assay: Test B pre/postemergence sugar beet; type: in vivo, Beta vulgaris
Procedure, shortened: as §1

[7] = test system: purple nutsedge; assay: Test B pre/postemergence purple nutsedge; type: in vivo, Cyperus rotundus
Procedure, shortened: as §1

[8] = test system: crabgrass; assay: Test B pre/postemergence crabgrass; type: in vivo, Digitaria sanguinalis
Procedure, shortened: as §1

[9] = test system: velvetleaf; assay: Test B pre/postemergence velvetleaf; type: in vivo, Abutilon theophrasti
Procedure, shortened: as §1

[10] = test system: corn; assay: Test B pre/postemergence corn; type: in vivo, Zea mays
Procedure, shortened: as §1

[11] = Preemergence, Rate 62 g/ha, scale of 0 to 10 where 0 is no effect and 10 is complete control
[12] = Preemergence, Rate 250 g/ha, scale of 0 to 10 where 0 is no effect and 10 is complete control
[13] = Preemergence, Rate 500 g/ha, scale of 0 to 10 where 0 is no effect and 10 is complete control
[14] = Rate 62 g/ha, Postemergence, scale of 0 to 10 where 0 is no effect and 10 is complete control
[15] = Rate 125 g/ha, Postemergence, scale 0 to 10
[16] = Rate 125 g/ha, Preemergence, scale of 0 to 10 where 0 is no effect and 10 is complete control
[17] = Rate 500 g/ha, Postemergence, scale 0 to 10, 0 no effect, 10 complete control

SMILES: CCCCCC#CCn1c(=O)on(C(=O)N(c2ccc(F)cc2)C(C)C)c1=O [Compound 254]
- Barnyardgrass plant response rating ([1]; Rate 250 g/ha, flood-test species, scale 0 to 10, 0 is no effect, 10 is complete control): 0
- Barnyardgrass plant response rating ([1]; Rate 500 g/ha, flood test species, scale 0 to 10 (0 no effect, 10 complete control)): 0
- Bedstraw plant response rating [2, 11]: 0
- Bedstraw plant response rating [2, 12]: 0
- Plant response rating, Bedstraw [2, 13]: 0
- Bedstraw plant response rating [2, 14]: 0
- Bedstraw plant response rating [2, 15]: 4
- Bedstraw plant response rating [2, 16]: 0
- Plant response rating (0 to 10; 0 is no effect, 10 is complete control), Bedstraw ([2]; Rate 250 g/ha, Postemergence): 4
- Bedstraw plant response rating [2, 17]: 4
- Morningglory plant response rating [3, 11]: 0
- Morningglory plant response rating [3, 12]: 0
- Plant response rating, Morningglory [3, 13]: 0
- Morningglory plant response rating [3, 16]: 0
- Plant response rating (0 to 10; 0 is no effect, 10 is complete control), Morningglory ([3]; Rate 250 g/ha, Postemergence): 9
- Morningglory plant response rating [3, 17]: 9
- Wild oats plant response rating [4, 11]: 0
- Wild oats plant response rating [4, 12]: 0
- Plant response rating, Wild oats [4, 13]: 2
- Wild oats plant response rating [4, 16]: 0
- Wild oats plant response rating [4, 17]: 0
- B. signalgrass plant response rating [5, 11]: 0
- B. signalgrass plant response rating [5, 12]: 0
- Plant response rating, B. signalgrass [5, 13]: 0
- B. signalgrass plant response rating [5, 14]: 0
- B. signalgrass plant response rating ([5]; Rate 125 g/ha, Postemergence, scale 0 (no effect) to 10 (complete control)): 0
- B. signalgrass plant response rating [5, 16]: 0
- Plant response rating (0 to 10; 0 is no effect, 10 is complete control), B. signalgrass ([5]; Rate 250 g/ha, Postemergence): 0
- B. signalgrass plant response rating [5, 17]: 0
- Sugarbeets plant response rating [6, 11]: 0
- Sugarbeets plant response rating [6, 12]: 2
- Plant response rating, Sugarbeets [6, 13]: 6
- Sugarbeets plant response rating [6, 16]: 2
- Sugarbeets plant response rating [6, 17]: 7
- Nutsedge plant response rating [7, 11]: 0
- Nutsedge plant response rating [7, 12]: 0
- Plant response rating, Nutsedge [7, 13]: 0
- Nutsedge plant response rating [7, 16]: 0
- Plant response rating (0 to 10; 0 is no effect, 10 is complete control), Nutsedge ([7]; Rate 250 g/ha, Postemergence): 0
- Nutsedge plant response rating [7, 17]: 0
- Crabgrass plant response rating [8, 11]: 0
- Crabgrass plant response rating [8, 12]: 0
- Plant response rating, Crabgrass [8, 13]: 3
- Crabgrass plant response rating [8, 16]: 0
- Plant response rating (0 to 10; 0 is no effect, 10 is complete control), Crabgrass ([8]; Rate 250 g/ha, Postemergence): 0
- Crabgrass plant response rating [8, 17]: 0
- Velvetleaf plant response rating [9, 11]: 0
- Velvetleaf plant response rating [9, 12]: 0
- Plant response rating, Velvetleaf [9, 13]: 0
- Velvetleaf plant response rating [9, 16]: 0
- Velvetleaf plant response rating [9, 17]: 2
- Corn plant response rating [10, 11]: 0
- Corn plant response rating [10, 12]: 0
- Plant response rating, Corn [10, 13]: 0
- Corn plant response rating [10, 14]: 0
- Corn plant response rating [10, 15]: 0
- Corn plant response rating [10, 16]: 0
- Plant response rating (0 to 10; 0 is no effect, 10 is complete control), Corn ([10]; Rate 250 g/ha, Postemergence): 0
- Corn plant response rating [10, 17]: 0
